Assay: Hydrolytic stability of the metal halide complexes in aqueous solution (19F and 71Ga NMR studies)
Assay type: physicochemical
From the text: ^19F and ^71Ga NMR studies show complete conversion to [GaF3(Me3-tacn)]. Furthermore they confirm that the structure of the complex is retained in solution. […] The structure has also been confirmed crystallographically (FIG. 2). This provides clear evidence that direct incorporation of fluoride into the coordination sphere of carefully selected metal ions is entirely feasible, as well as establishing the high stability of the resulting fluoro complexes, even in aqueous solution.

resistance to hydrolysis / hydrolytic stability (aqueous solution): resistant to hydrolysis
Substance: [GaF3(Me3-tacn)].4H2O
stability relative to analogous halide or metal complexes (comparison with analogues): considerably more stable than the chloride and bromide analogues
